Laboratory results reported in patent US11780842B2, “TYK2 pseudokinase ligands” (Ventyx Biosciences, Inc., priority 2019, dated 2023).

System: IFN-a/Jak1Tyk2
Assay: Co-stimulation assay in lysed whole blood: IFNa (JAK1/TYK2) stimulated STAT1 phosphorylation
Assay type: cell-based
Conditions: lysed human whole blood, IFNa 100 ng/mL (co-stimulated with GM-CSF 10 ng/mL), pSTAT1 by flow cytometry
Procedure: Example 4: Co-Stimulation Assay in Lysed Whole Blood; JAK2: GM-CSF Stimulated STATS Phosphorylation and JAK1/TYK2 Stimulated STAT1 Phosphorylation Assay
Human Blood Lysis Using Abcam's RBC Lysis Buffer
Dilute RBC lysis buffer to 1× in distilled water. Add 2 mL blood to 38 mL of 1×RBC-lysis buffer. Incubate for 15 mins at RT, in dark. Spin at 300 g, 5 mins, to collect the pellet. Re-lyse if necessary. Re-suspend pellet in 5 mL of cRPMI.
Compound and Cytokine Treatment
Aliquot 80 μL of lysed human blood in to wells of 96 deep-well plate. Add 10 μl of (10× conc.) of different concentrations of compounds to all wells except controls (unstained and unstimulated) and mix it with the help of 100 uL multichannel. Add 10 uL of RPMI media in controls. For dilution of compounds and dilution range please refer Appendix. Incubate on water bath or CO2 incubator for 1 hour at 37° C. Add 10 μL of (10× conc.) of cytokine mix (GM-CSF and IFNa) (final conc. 10 ng/mL of GM-CSF and 100 ng/mL of IFNa) to each well except unstimulated and unstained controls and incubate further for 20 minutes on water bath at 37° C.
Add 900 μL of prewarmed 1× Fix/Lyse solution (Appendix) and mix it properly using 1000 μl multichannel, incubate further on water bath at 37° C. for 10 minutes (which includes time of addition). Centrifuge at 800× g for 5 minutes at 40° C.; remove 900 uL of supernatant and add 900 μL of 1×PBS. Centrifuge at 800× g for 5 minutes at 40° C., remove 900 μL of supernatant. Wash one more time with 900 μL of PBS (optional) and resuspend pellets in 100 uL of PBS.
Disrupt the pellet by gentle tapping and resuspend in 1000 μL of BD Phosflow Perm Buffer III and incubate plate on ice for 30 minutes. Centrifuge plate at 800× g for 5 minutes at 40° C. Wash two more times with 1000 μL of BD Pharmingen Stain Buffer.
Disrupt the pellet by gentle tapping. Resuspend pellets in 100 uL of Stain Buffer and add 5 μL of pSTAT5_AF488 Ab and 5 uL of pSTAT1_PE in all wells except unstained control and mix properly using 200 μl multichannel, incubate overnight at […]. Add 900 μL of wash buffer and centrifuge at 1800 rpm for 3 minutes at […]. Wash one more time with 1000 μL of BD Pharmingen Stain Buffer. Finally resuspend the pellet in 300 uL of BD Pharmingen Stain Buffer. Transfer the cells to 96-well v-bottom plate and acquire the cells in Beckman Coulter CytExpert. Acquiring cells in Flow Cytometer: Keep the threshold value to 250 and cell concentration should not exceed 100-500 cells/μL. Acquire at least 5,000-10,000 cells.
RPMI 1640 Complete Medium: RPMI 1640 media+10% FBS.
Cytokine dilution: 1) GM-CSF Stock at 100 ug/mL. Prepare an intermediate dilution of 1 ug/mL by adding 2 uL of stock into 198 uL of cRPMI. Further dilute to 100 ng/mL by adding 100 uL of the intermediate stock to 900 uL of cRPMI. 2) IFNa Stock at 200 ug/mL. Dilute IFNa stock 1:200 by adding 5 uL of stock into the 1000 uL of 100 ng/mL GM-CSF working stock as above to give a combined working stock of 1000 ng/mL of IFNa and 100 ng/mL GM-CSF (lox). Keep it on ice until used.
Lyse/Fix buffer preparation: Dilute 5× Lyse/Fix buffer to 1× using MQ water and keep at 37° C. until used.
BD Phosflow perm buffer III: Keep on ice/fridge.

| SMILES | IC50 [µM] |
| --- | --- |
| CNc1cc2nc3c(cnn13)C(=O)NCCOc1cc(F)ccc1N2 [Compound 34, (1^3E,1^4E)-3^4-fluoro-1^7-(methylamino)-4-oxa-2,7-diaza-1(5,3)-pyrazolo[1,5-a]pyrimidina-3(1,2)-benzenacyclooctaphan-8-one] | 0.1 to 1 |
| CNc1cc2nc3c(cnn13)C(=O)NCCOc1cc(cc(F)c1F)N2 [Compound 28, (1^3E,1^4E)-3^4,3^5-difluoro-1^7-(methylamino)-4-oxa-2,7-diaza-1(5,3)-pyrazolo[1,5-a]pyrimidina-3(1,3)-benzenacyclooctaphan-8-one] | 0.1 to 1 |
| CNc1cc2nc3c(cnn13)C(=O)NCCOc1cc(c(F)cc1F)N2 [Compound 29, (1^5E,1^4E)-3^4,3^6-difluoro-1^7-(methylamino)-4-oxa-2,7-diaza-1(5,3)-pyrazolo[1,5-a]pyrimidina-3(1,3)-benzenacyclooctaphan-8-one] | 0.1 to 1 |
| CNc1cc2nc3c(cnn13)C(=O)NCCOc1cccc(n1)N2 [Compound 17, (1^3E,1^4E)-1^7-(methylamino)-4-oxa-2,7-diaza-1(5,3)-pyrazolo[1,5-a]pyrimidina-3(2,6)-pyridinacyclooctaphan-8-one] | ≤ 0.5 |
| CNc1cc2nc3c(cnn13)C(=O)NCCOc1cccc(c1)N2 [Compound 7, (1^3E,1^4E)-1^7-(methylamino)-4-oxa-2,7-diaza-1(5,3)-pyrazolo[1,5-a]pyrimidina-3(1,3)-benzenacyclooctaphan-8-one] | ≤ 0.5 |
| CNc1cc2nc3c(cnn13)C(=O)NCCCOc1ccc(F)cc1N2 [Compound 46, (1^3E,1^4E)-3^5-fluoro-1^7-(methylamino)-4-oxa-2,8-diaza-1(5,3)-pyrazolo[1,5-a]pyrimidina-3(1,2)-benzenacyclononaphan-9-one] | 1 to 10 |
| CNc1cc2nc3c(cnn13)C(=O)NCCC(=O)c1cccc(c1)N2 [Compound 44, (1^3E,1^4E)-1^7-(methylamino)-2,7-diaza-1(5,3)-pyrazolo[1,5-a]pyrimidina-3(1,3)-benzenacyclooctaphane-4,8-dione] | 1 to 10 |
| CNc1cc2nc3c(cnn13)C(=O)NCC(C)Oc1cccc(c1)N2 (centres unmarked) [Compound 37, (1^3E,1^4E)-5-methyl-1^7-(methylamino)-4-oxa-2,7-diaza-1(5,3)-pyrazolo[1,5-a]pyrimidina-3(1,3)-benzenacyclooctaphan-8-one] | 1 to 10 |
| CNc1cc2nc3c(cnn13)C(=O)NCCCn1cc(cn1)N2 [Compound 45, (1^3E,1^4E,3^4E)-1^7-(methylamino)-31H-2,7-diaza-1(5,3)-pyrazolo[1,5-a]pyrimidina-3(4,1)-pyrazolacyclooctaphan-8-one] | 1 to 10 |
| CNc1cc2nc3c(cnn13)C(=O)NCCOc1ccc(F)cc1N2 [Compound 32, (1^3E,1^4E)-3^5-fluoro-1^7-(methylamino)-4-oxa-2,7-diaza-1(5,3)-pyrazolo[1,5-a]pyrimidina-3(1,2)-benzenacyclooctaphan-8-one] | 0.1 to 1 |
| CNc1cc2nc3c(cnn13)C(=O)NCCOc1cc(c(F)cc1C)N2 [Compound 39, (1^3E,1^4E)-3^6-fluoro-34-methyl-1^7-(methylamino)-4-oxa-2,7-diaza-1(5,3)-pyrazolo[1,5-a]pyrimidina-3(1,3)-benzenacyclooctaphan-8-one] | 1 to 10 |
